Read-outs that look alike come from different tables or passages of the source.

One assay addresses hERG channels (Homo sapiens (Human), UniProt Q12809). As to the kind of experiment: hERG electrophysiology assay (patch clamp). Format: cell-based. The note with it: HEK 293 cells stably expressing hERG channels, tail current. As to the method: hERG Electrophysiology Assay. The experimental compounds were assessed for hERG activity on HEK 293 cells stably expressing hERG channels using patch clamp technique. Coverslips plated with hERG expressing cells were placed in the experimental chamber and were perfused with a solution composed of (in mM): 140 NaCl, 4 KCl, 1.8 CaCl2, 1 MgCl2, 10 Glucose, 10 HEPES (pH 7.4, NaOH) at room temperature. Borosilicate patch pipettes had tip resistances of 2-4 Mohms when filled with an internal solution containing: 130 KCl, 1 MgCl2, 1 CaCl2, 10 EGTA, 10 HEPES, 5 ATP-K2 (pH 7.2, KOH). The cells were clamped at −80 mV in whole cell configuration using an Axopatch 200B (Axon instruments, Union City, Calif.) patch clamp amplifier controlled by pClamp (Axon instruments) software. […] First, tail currents were recorded in presence of extracellular solution alone (control) and subsequently, in extracellular solution containing increasing compound concentrations. […] The percentage inhibition at each concentration was calculated as reduction in peak tail current with respect to the peak tail current recorded in the presence of control solution. […]

A further assay relates to mice. As to the kind of experiment: Mouse Forced Swim Test (mFST). The class given is in vivo. To be noted: 1 mg/Kg i.v., 15 min before 6 min swim session. As to the method: Mouse Forced Swim Test (mFST). Forced Swim Test (FST) is an animal model used to assess antidepressant compounds in preclinical studies. The FST was performed similar to the method of Porsolt et al. with modifications (Porsolt R D, Bertin A, Jalfre M. Behavioral despair in mice: a primary screening test for antidepressants. Arch Int Pharmacodyn Thér 1977; 229:327-36). In this paradigm, mice are forced to swim in an inescapable cylinder filled with water. Under these conditions, mice will initially try to escape and eventually develop immobility behavior; this behavior is interpreted as a passive stress-coping strategy or depression-like behavior. […] The duration of immobility was evaluated during the total 6 min of the test and expressed as duration (sec) of immobility. […] All testing sessions were recorded with a video camera (Sony Handicam, Model: DCR-HC38E; PAL) and scoring was done using the Forced Swim Scan, Version 2.0 software (Clever Systems Inc., Reston, Va., USA; see Hayashi E, Shimamura M, Kuratani K, Kinoshita M, Hara H. Automated experimental system capturing three behavioral components during murine forced swim test. Life Sci. 2011 Feb. 28; 88(9-10):411-7 and Yuan P, Tragon T, Xia M, Leclair C A, Skoumbourdis A P, Zheng W, Thomas C J, Huang R, Austin C P, Chen G, Guitart X. Phosphodiesterase 4 inhibitors enhance sexual pleasure-seeking activity in rodents. […]

The target of assay [1] is NR2B-subtype NMDA receptors (Rattus norvegicus (Rat), UniProt P35439+Q00960). Nature of the assay: Radioligand binding assay (3H Ro 25-6981 competition, rat forebrain membranes). To be noted: 3H Ro 25-6981 (4 nM). As to the method: Radioligand Binding Assay. Binding experiments to determine binding to NR2B-subtype NMDA receptors were performed on forebrains of 8-10 weeks old male Sprague Dawley rats (Harlan, Netherlands) using ^3H Ro 25-6981 (Mutel V; Buchy D; Klingelschmidt A; Messer J; Bleuel Z; Kemp J A; Richards J G. Journal of Neurochemistry, 1998, 70(5):2147-2155. Rats were decapitated without anesthesia using a Guillotine (approved by animal ethics committee) and the harvested brains were snap-frozen and stored at −80° C. for 3-6 months for membrane preparation.
For membrane preparation, rat forebrains were thawed on ice for 20 minutes in homogenization buffer composed of 50 mM KH2PO4 (pH adjusted to 7.4 with KOH), 1 mM EDTA, 0.005% Triton X 100 and protease inhibitor cocktail (Sigma Aldrich). Thawed brains were homogenized using a Dounce homogenizer and centrifuged at 48000×g for 20 min. The pellet was resuspended in cold buffer and homogenized again using a Dounce homogenizer. Subsequently, the homogenate was aliquoted, snap-frozen and stored at −80° C. for not more than 3-4 months.
To perform the competition binding assay, thawed membrane homogenate was added to each well of a 96-well plate (20 μg/well). The experimental compounds were serially diluted in 100% DMSO and added to each row of the assay plate to achieve desired compound concentrations, keeping the DMSO concentration in the assay plate at 1.33% of the final reaction volume. Next, ^3H Ro 25-6981 (4 nM) was added to the assay plate. After incubation for 1 hr at room temperature, the membrane bound radioligand was harvested on to GF/B filter plates (treated with 0.5% PEI for 1 hr at room temperature). The filter plates were dried at 50° C. for 20 mins, incubated with microscint 20 for 10 minutes and finally, the counts were read on TopCount (Perkin Elmer).

Sequence of NR2B-subtype NMDA receptors (Q00960 27-1482, other chains not shown): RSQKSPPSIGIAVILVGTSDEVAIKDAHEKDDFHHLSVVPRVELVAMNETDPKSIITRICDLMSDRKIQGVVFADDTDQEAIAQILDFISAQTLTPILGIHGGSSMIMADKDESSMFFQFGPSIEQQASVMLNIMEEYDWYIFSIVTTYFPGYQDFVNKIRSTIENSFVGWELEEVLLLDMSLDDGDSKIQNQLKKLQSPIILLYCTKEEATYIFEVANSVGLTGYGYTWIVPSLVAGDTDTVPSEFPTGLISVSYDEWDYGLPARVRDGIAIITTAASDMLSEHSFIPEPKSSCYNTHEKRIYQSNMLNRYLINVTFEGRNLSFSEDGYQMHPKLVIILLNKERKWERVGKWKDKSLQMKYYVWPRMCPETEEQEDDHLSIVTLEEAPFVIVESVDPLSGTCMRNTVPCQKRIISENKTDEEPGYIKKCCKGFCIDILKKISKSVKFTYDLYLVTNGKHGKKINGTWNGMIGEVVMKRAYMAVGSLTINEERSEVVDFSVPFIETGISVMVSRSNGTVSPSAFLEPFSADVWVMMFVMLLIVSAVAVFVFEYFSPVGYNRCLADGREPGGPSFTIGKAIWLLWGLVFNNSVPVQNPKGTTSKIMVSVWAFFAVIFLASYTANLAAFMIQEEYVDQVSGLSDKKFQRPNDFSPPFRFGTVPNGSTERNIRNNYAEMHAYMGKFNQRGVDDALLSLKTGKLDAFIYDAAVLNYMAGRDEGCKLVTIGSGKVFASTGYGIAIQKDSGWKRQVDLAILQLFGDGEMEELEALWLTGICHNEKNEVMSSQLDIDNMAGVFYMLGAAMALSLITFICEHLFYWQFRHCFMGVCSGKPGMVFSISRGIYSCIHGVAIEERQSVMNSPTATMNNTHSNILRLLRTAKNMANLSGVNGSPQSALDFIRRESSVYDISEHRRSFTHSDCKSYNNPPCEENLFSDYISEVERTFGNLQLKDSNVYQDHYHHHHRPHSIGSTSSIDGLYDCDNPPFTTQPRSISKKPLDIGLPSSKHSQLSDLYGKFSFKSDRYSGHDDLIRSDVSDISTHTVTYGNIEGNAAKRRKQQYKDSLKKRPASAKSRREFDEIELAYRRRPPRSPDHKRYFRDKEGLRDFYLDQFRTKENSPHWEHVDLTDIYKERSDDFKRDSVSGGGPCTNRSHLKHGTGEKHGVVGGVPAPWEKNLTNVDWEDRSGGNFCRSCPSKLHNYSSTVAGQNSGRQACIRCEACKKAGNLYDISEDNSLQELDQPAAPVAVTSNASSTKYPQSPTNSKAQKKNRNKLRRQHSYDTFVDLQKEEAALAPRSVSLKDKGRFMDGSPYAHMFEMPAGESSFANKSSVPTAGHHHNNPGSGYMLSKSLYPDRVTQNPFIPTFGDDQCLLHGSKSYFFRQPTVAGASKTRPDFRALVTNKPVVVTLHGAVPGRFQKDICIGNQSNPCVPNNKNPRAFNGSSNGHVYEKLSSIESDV
Sequence of hERG channels (Q12809 whole entry, the tested form may be a part): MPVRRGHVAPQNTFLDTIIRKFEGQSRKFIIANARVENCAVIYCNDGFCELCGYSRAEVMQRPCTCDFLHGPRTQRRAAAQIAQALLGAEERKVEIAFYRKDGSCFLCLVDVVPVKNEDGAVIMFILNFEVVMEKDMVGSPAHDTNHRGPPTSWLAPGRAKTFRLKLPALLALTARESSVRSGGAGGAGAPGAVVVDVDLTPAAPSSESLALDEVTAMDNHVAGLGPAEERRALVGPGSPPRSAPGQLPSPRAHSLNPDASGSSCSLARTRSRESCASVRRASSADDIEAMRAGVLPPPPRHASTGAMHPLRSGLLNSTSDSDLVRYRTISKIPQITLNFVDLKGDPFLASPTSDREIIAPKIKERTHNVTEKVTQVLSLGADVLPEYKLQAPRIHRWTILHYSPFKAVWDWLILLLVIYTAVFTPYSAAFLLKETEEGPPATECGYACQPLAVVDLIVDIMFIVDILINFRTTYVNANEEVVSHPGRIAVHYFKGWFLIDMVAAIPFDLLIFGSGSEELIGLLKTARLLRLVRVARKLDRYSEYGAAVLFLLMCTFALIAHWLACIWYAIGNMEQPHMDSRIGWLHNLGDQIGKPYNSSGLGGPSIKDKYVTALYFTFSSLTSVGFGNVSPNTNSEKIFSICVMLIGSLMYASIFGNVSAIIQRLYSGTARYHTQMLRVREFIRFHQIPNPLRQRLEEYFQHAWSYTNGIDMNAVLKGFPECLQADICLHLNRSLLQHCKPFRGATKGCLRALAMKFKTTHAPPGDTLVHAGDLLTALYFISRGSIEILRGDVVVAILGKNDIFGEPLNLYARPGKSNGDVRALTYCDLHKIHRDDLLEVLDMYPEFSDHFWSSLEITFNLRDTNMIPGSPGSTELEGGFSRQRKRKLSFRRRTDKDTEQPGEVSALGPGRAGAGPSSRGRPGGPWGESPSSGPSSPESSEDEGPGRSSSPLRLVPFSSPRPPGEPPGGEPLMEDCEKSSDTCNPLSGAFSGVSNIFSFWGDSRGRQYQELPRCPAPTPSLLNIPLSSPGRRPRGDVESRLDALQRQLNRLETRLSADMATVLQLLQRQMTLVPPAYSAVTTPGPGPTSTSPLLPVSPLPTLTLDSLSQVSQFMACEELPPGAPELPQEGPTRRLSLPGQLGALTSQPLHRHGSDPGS

Regarding `Cc1ccc(CN2OCC(N3CCN(c4ccc(O)cn4)CC3)C2=O)cc1` (single isomer, unassigned) [Example 10, P-1, 4-(4-(5-hydroxypyridin-2-yl)piperazin-1-yl)-2-(4-methylbenzyl)isoxazolidin-3-one], on hERG channels, the half-inhibitory concentration (IC50) (commonly the point on the concentration scale where inhibition reaches its midpoint) was 30000 nM. Besides, in the assay with mice, the immobility time result is listed as “statistically significant decrease”. Further, the inhibition constant (Ki) – broadly, the dissociation constant of the complex between target and ligand, obtained from inhibition or displacement – in assay [1] (listed as 10, P-1, read-out: NR2B Binding Ki) turned out to be 3.2 nM; in assay [1] (read-out: binding Ki), 3.2 nM.
